The source made the active and inactive calls. No rule for the calls is given here.
These molecules were tested against Flavivirus NS5 methyltransferase / guanylyltransferase (capping enzyme) (assay: NS5 cap-forming enzyme inhibition – biochemical, confirmation (AID 602308)). Settings: Flavivirus NS5 capping enzyme biochemical inhibition assay.

| SMILES | IC50 |
| --- | --- |
| O=[N+]([O-])c1cccc(S(=O)(=O)Nc2cc(SCc3ccccc3)c(O)c3ccccc23)c1 | 14.8 µM |
| O=S(=O)(Nc1cc(Sc2ncn[nH]2)c(O)c2ccccc12)c1ccc(F)cc1 | 10.2 µM |
| O=[N+]([O-])c1cccc(S(=O)(=O)Nc2cc(Sc3nc4ccccc4s3)c(O)c3ccccc23)c1 | 34.3 µM |
| O=S(=O)(Nc1cc(SCc2ccccc2)c(O)c2ccccc12)c1ccc(Cl)cc1 | 43.3 µM |
| COc1ccc(OC)c(S(=O)(=O)Nc2cc(SCC(=O)O)c(O)c3ccccc23)c1 | 9.09 µM |
| O=C(O)CSc1cc(NS(=O)(=O)c2cccc([N+](=O)[O-])c2)c2ccccc2c1O | 3.83 µM |
| O=S(=O)(Nc1cc(Cl)c(O)c2ccccc12)c1ccc(F)cc1 | 17.8 µM |
| O=S(=O)(Nc1cc(Sc2ccccc2)c(O)c2ccccc12)c1ccc(F)cc1 | 35.6 µM |
| Cn1c(=O)c2[nH]c(-c3ccc(Cl)cc3)c(O)c2n(C)c1=O | 57.8 µM |
| Cc1cc(C)c(S(=O)(=O)Nc2cc(SCC(=O)O)c(O)c3ccccc23)c(C)c1 | 6.95 µM |
| Cc1ccc(S(=O)(=O)Nc2cc(Sc3nc(C)cc(C)n3)c(O)c3ccccc23)cc1 | 83.8 µM |
| Cc1cc(F)ccc1S(=O)(=O)Nc1cc(SCC(=O)O)c(O)c2ccccc12 | 5.66 µM |

The next lines start with the values.

| IC50 | SMILES |
| --- | --- |
| 28.1 µM | Cn1c(=O)c2[nH]c(-c3ccccc3)c(O)c2n(C)c1=O |
| 4.96 µM | O=C(O)CSc1cc(NS(=O)(=O)c2ccc(Br)cc2)c2ccccc2c1O |
| 6.62 µM | O=C(O)CSc1cc(NS(=O)(=O)c2cccc3cccnc23)c2ccccc2c1O |
| 6.24 µM | Cc1ccc(S(=O)(=O)Nc2cc(SCC(=O)O)c(O)c3ccccc23)cc1 |
| 5.45 µM | O=C(O)CSc1cc(NS(=O)(=O)c2ccc(Cl)cc2)c2ccccc2c1O |
| 7.32 µM | O=C(O)CSc1cc(NS(=O)(=O)c2ccc(F)cc2)c2ccccc2c1O |

Same assay, conditions: Flavivirus NS5 capping enzyme biochemical inhibition assay; at 100 µM (top of the series)

| inhibition | SMILES |
| --- | --- |
| inactive | Clc1ccc2nc(-c3ccccc3)cn2c1 |
| inactive | Cn1c(=O)c2[nH]c(-c3cccc4ccccc34)c(O)c2n(C)c1=O |
| inactive | Cc1ccc(-c2cn3nc(C)c(C)nc3n2)cc1 |
| inactive | Cc1nc2nc(-c3ccc(F)cc3)cn2nc1C |
| inactive | Cn1c(=O)c2[nH]c(-c3ccccc3)nc2n(C)c1=O |
| inactive | CN(C)C(=O)c1ccc2nc(-c3ccccc3)cn2c1 |
| inactive | Cn1c(=O)c2cnc(-c3ccccc3)nc2n(C)c1=O |
| inactive | Clc1ccc2nc(-c3cccs3)cn2c1 |
| inactive | Cc1nc2nc(-c3ccc(Cl)cc3)cn2nc1C |
| inactive | Cc1ccc2nc(-c3ccccc3)cn2c1 |
| inactive | Cc1ccn2cc(-c3ccccc3)nc2c1 |
| inactive | Cc1nc2nc(-c3ccccc3)cn2nc1C |

Source: PubChem BioAssay AID602308 (Southern Research Specialized Biocontainment Screening …, 2012)
